Data published in PMC7292393 (PLoS ONE, 2020).
Entries after “also recorded” stand apart in the source; their conditions may differ.

How the values were obtained:
[1] = molecular target: T1, SUMO1^Δ15 (Homo sapiens, UniProt P63165); test: Differential scanning fluorimetry (DSF) thermal shift; format: binding; settings: 2 μM SUMO1^Δ15, fisetin 20 to 200 μM
T1 construct: encoding amino acids 1–97 of mature human SUMO1; made in house; host or cells: E. coli BL21 Rosetta (DE3)
Description: Here we used a variant of the human SUMO1 called SUMO1^Δ15 in which the N-terminal 15 amino acids of SUMO1 are removed. The first 15 amino acids of human SUMO1 are weakly conserved and reported to be unstructured, and so therefore might contribute to its instability. […] We next compared SUMO1^Δ15 directly with wild-type SUMO1.
Fluorescence-based thermal shift assays known as differential scanning fluorimetry (DSF) were performed following the general protocol described in [28]. In short, 20 μl reactions were prepared with 2 μM human SUMO1 or SUMO1^Δ15 protein exchanged in DSF buffer (50 mM Tris-Cl pH 8.0, 150 mM NaCl, 10% glycerol), 10X SYPRO Orange (ThermoFisher Scientific, Waltham, MA), and 0.3 μl of DMSO control or flavonoid dissolved in DMSO. PCR plates (white non-skirted, 96-well) were sealed with optical film, centrifuged, and incubated at 4 °C for 30 min prior to analysis. Thermal scanning (20°C for 30 s, followed by ramping from 20 °C to 90 °C at 0.5 °C/15 s) was performed using a real-time PCR setup (CFX384 Touch, Biorad, Hercules, CA) with filter sets for measurement of relative fluorescence units (RFU) at 0.5°C intervals. Tm was calculated from the maxima of the first derivative of RFU/temperature using GraphPad Prism7. For the HSF1 denaturation experiment, recombinantly expressed and affinity purified human HSF1 was exchanged in DSF buffer. […]

[2] = molecular target: T2, human SUMO1 (Homo sapiens, UniProt P63165); test: as above; format: binding
T2 construct: encoding amino acids 1–97 of mature human SUMO1; host or cells: E. coli BL21 Rosetta (DE3)
T2 sequence (P63165 1-97): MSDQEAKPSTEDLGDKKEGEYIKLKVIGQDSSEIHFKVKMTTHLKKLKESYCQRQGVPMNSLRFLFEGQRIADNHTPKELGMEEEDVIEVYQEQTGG

[3] = molecular target: T3, bovine ubiquitin (Bos taurus, UniProt P0CG53); test: SPR binding to ubiquitin surface; settings: Fig 2J
T3 construct: native bovine ubiquitin (U6253); purchased Sigma-Aldrich U6253
Description: All injections were performed in a Biacore T200 (GE Healthcare, Chicago, IL) at a flow rate of 20 μl/min in running buffer (20 mM Hepes (pH 7.4), 150 mM NaCl, 5 mM MgCl2, 0.0005% Tween 20) at 25°C. CMD200 and HC1500 sensor chips (Zantec Bioanalytics, Duesseldorf, Germany) were used for the primary and secondary SPR screens and for obtaining SPR sensograms shown in Fig 2I and 2J, respectively. SUMO1 surface in CMD-200 sensor chip and HC1500 sensor chip were generated with immobilization levels 10887 and 19639 resonance units (RU), respectively. Ubiquitin surface in HC1500 sensor chip was generated with 6106 RU. Human SUMO1 and bovine ubiquitin biosensors were prepared by standard amine coupling chemistry as follows: An equal volume of 0.1 M N-hydroxysuccinimide (NHS) and 0.4 M ethyl(dimethylaminopropyl) carbodiimide was injected for 7 min at 5 μl/min over a single flow cell. Following this step, human SUMO1 or bovine ubiquitin (100 μg/ml in pH 4.5 acetate buffer) was injected for 15 min, immediately followed by a 7 min injection of 1M ethanolamine (pH 9). […] RUmax was calculated as 8320/MW ratio, where 8320 is AU of human SUMO1 immobilized onto the chip and MW ratio is the ratio of MW (Da) of SUMO1 to flavonoid. […]

[4] = molecular target: T4, sumoylation of tumor suppressor p53 by SUMO1 (Homo sapiens, UniProt P63165); test: In vitro sumoylation (SUMOlink SUMO-1 Kit), Western blot; format: biochemical; settings: 300 μM fisetin, 30°C for 3 hr
T4 construct: purchased Active Motif 40120
T4 sequence (P63165 1-97 limits assumed): as the sequence (P63165 1-97) above
Excerpt: To this end, we performed in vitro sumoylation experiments in which the cellular sumoylation reaction was reconstituted using purified human SUMO1, E1 activating enzyme, E2 conjugating enzyme, and two putative protein substrates (human tumor suppressor p53 and human transcription factor HSF1). E1 activating enzyme functions by transferring active SUMO1 protein to the E2 conjugating enzyme Ubc9, which in turn attaches SUMO1 onto target protein substrates. Both p53 and HSF1 proteins are linked to sumoylation as well as to cancer pathways.
Proteins were separated by SDS-PAGE using 4–20% or 7.5% Mini-PROTEAN TGX Precast Protein Gels (Bio-Rad, Hercules, CA) followed by detection with Bio-Safe Coomassie Stain (Bio-Rad). For Western immunoblotting experiments, proteins in SDS-PAGE gels were transferred onto a PVDF membrane at 4°C using Mini Trans-Blot Cell (Bio-Rad), blocked with 5% nonfat milk for 1 hr at room T or overnight at 4°C and incubated with the following primary antibodies at indicated dilutions for 1 hr at room T: 1:10,000 HSF1 polyclonal antibody (Enzo Life Sciences ADI-SPA-901-F; Lausen, Switzerland), 1:4000 p53 rabbit antibody (SUMOlink SUMO-1 Kit), 1:5000 SUMO-1 rabbit antibody (SUMOlink SUMO-1 Kit). Secondary antibody incubation was performed for 1 hr at room T using 1:10,000 goat anti-rabbit IgG polyclonal antibody (Enzo Life Sciences, ADI-SAB-300). […]

T1 sequence (P63165 with tags, fused parts or gaps limits assumed): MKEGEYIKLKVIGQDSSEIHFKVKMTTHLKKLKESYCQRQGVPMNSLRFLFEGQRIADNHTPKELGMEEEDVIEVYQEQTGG

dose-dependent effect on DSF thermogram of SUMO1^Δ15 [1]: thermal destabilization
ΔTm at 300 µM [2]: < 2 °C
SPR binding to bovine ubiquitin [3]: failed to bind to bovine ubiquitin
SPR binding to bovine ubiquitin ([3]; listed as fisetin): no appreciable binding
Compound: O=c1c(O)c(-c2ccc(O)c(O)c2)oc2cc(O)ccc12 [Fisetin, 3,3',4',7-tetrahydroxyflavone]
effect on DSF thermogram / thermal stability of SUMO1 ([2]; 2 μM SUMO1, 300 μM flavonoid): cause unfolding of human SUMO1; also recorded: unfolding of the protein at ambient temperature
sumoylation of p53 in vitro [4]: no SUMO conjugates of p53 were detected; also recorded: completely inhibits sumoylation
